Results as given in ChEMBL document CHEMBL3526130, “An evaluation of using rat-derived single-dose neuropharmacokinetic parameters to project accurately large animal unbound brain drug concentrations” (Drug Metab Dispos, 2012).

Key:
Assay type in all cases: ADME, organism-based
[1] = AUC(0 to 2 hrs) in Sprague-Dawley rat brain at 2 mg/kg, sc by LC-MS/MS analysis; design: time < 2 hr, dose 2 mg/kg, route subcutaneous
[2] = AUC(0 to infinity) in Sprague-Dawley rat cerebrospinal fluid at 2 mg/kg, sc by LC-MS/MS analysis; design: time infinity, dose 2 mg/kg, route subcutaneous
[3] = Ratio of unbound drug level in brain to plasma in Sprague-Dawley rat at 2 mg/kg, sc by LC-MS/MS analysis; design: dose 2 mg/kg, route subcutaneous
[4] = AUC(0 to infinity) in Sprague-Dawley rat plasma at 2 mg/kg, sc by LC-MS/MS analysis; design: time infinity, dose 2 mg/kg, route subcutaneous
[5] = AUC(0 to 2 hrs) in Sprague-Dawley rat plasma at 2 mg/kg, sc by LC-MS/MS analysis; design: time < 2 hr, dose 2 mg/kg, route subcutaneous
[6] = AUC(0 to infinity) in Sprague-Dawley rat brain at 2 mg/kg, sc by LC-MS/MS analysis; design: dose 2 mg/kg, route subcutaneous, time infinity
[7] = AUC(0 to 2 hrs) in Sprague-Dawley rat cerebrospinal fluid at 2 mg/kg, sc by LC-MS/MS analysis; design: time < 2 hr, dose 2 mg/kg, route subcutaneous
[8] = Ratio of drug level in brain to plasma in Sprague-Dawley rat at 2 mg/kg, sc by LC-MS/MS analysis; design: dose 2 mg/kg, route subcutaneous; conditions: read-out: BPR
[9] = Ratio of unbound brain concentration to drug level in cerebrospinal fluid in Sprague-Dawley rat at 2 mg/kg, sc by LC-MS/MS analysis; design: dose 2 mg/kg, route subcutaneous; conditions: in vivo
[10] = system: Nucleic Acid; assay: Ratio of drug level in cerebrospinal fluid to unbound plasma concentration in Sprague-Dawley rat at 2 mg/kg, sc by LC-MS/MS analysis; design: dose 2 mg/kg, route subcutaneous; conditions: in vivo
[11] = AUC(0 to infinity) in Sprague-Dawley rat brain at 35 mg/kg, sc by LC-MS/MS analysis; design: dose 35 mg/kg, route subcutaneous, time infinity
[12] = AUC(0 to 7 hrs) in Sprague-Dawley rat brain at 35 mg/kg, sc by LC-MS/MS analysis; design: time < 7 hr, dose 35 mg/kg, route subcutaneous
[13] = Ratio of unbound drug level in brain to plasma in Sprague-Dawley rat at 35 mg/kg, sc by LC-MS/MS analysis; design: dose 35 mg/kg, route subcutaneous
[14] = system: Nucleic Acid; assay: Ratio of drug level in brain to plasma in Sprague-Dawley rat at 35 mg/kg, sc by LC-MS/MS analysis; design: dose 35 mg/kg, route subcutaneous
[15] = AUC(0 to infinity) in Sprague-Dawley rat plasma at 35 mg/kg, sc by LC-MS/MS analysis; design: time infinity, dose 35 mg/kg, route subcutaneous
[16] = AUC(0 to 7 hrs) in Sprague-Dawley rat plasma at 35 mg/kg, sc by LC-MS/MS analysis; design: time < 7 hr, dose 35 mg/kg, route subcutaneous
[17] = AUC(0 to infinity) in Sprague-Dawley rat cerebrospinal fluid at 35 mg/kg, sc by LC-MS/MS analysis; design: dose 35 mg/kg, route subcutaneous, time infinity
[18] = Ratio of unbound brain concentration to drug level in cerebrospinal fluid in Sprague-Dawley rat at 35 mg/kg, sc by LC-MS/MS analysis; design: dose 35 mg/kg, route subcutaneous; conditions: in vivo
[19] = AUC(0 to 7 hrs) in Sprague-Dawley rat cerebrospinal fluid at 35 mg/kg, sc by LC-MS/MS analysis; design: time < 7 hr, dose 35 mg/kg, route subcutaneous
[20] = system: Nucleic Acid; assay: Ratio of drug level in cerebrospinal fluid to unbound plasma concentration in Sprague-Dawley rat at 35 mg/kg, sc by LC-MS/MS analysis; design: dose 35 mg/kg, route subcutaneous; conditions: in vivo

SMILES | AUC(0-t) at 2 h [1] [µg·h/mL] | AUC(0-inf) [2] [µg·h/mL] | Kp uu [3] | AUC(0-inf) [4] [µg·h/mL] | AUC(0-t) at 2 h [5] [µg·h/mL] | AUC(0-inf) [6] [µg·h/mL] | AUC(0-t) at 2 h [7] [µg·h/mL] | Kp [8] | Ratio [9] | Ratio [10] | AUC(0-inf) [11] [µg·h/mL] | AUC(0-t) at 7 h [12] [µg·h/mL] | Kp uu [13] | BPR [14] | AUC(0-inf) [15] [µg·h/mL] | AUC(0-t) at 7 h [16] [µg·h/mL] | AUC(0-inf) [17] [µg·h/mL] | Ratio [18] | AUC(0-t) at 7 h [19] [µg·h/mL] | Ratio [20]
Clc1ccc2c(c1)N=C(N1CCNCC1)c1ccccc1N2 [N-DESMETHYLCLOZAPINE] | 0.221 | 0.00891 | 0.06 | 0.57 | 0.346 | 0.699 | 0.0048 | 0.64 | 0.26 | 0.22 | – | – | – | – | – | – | – | – | – | –
C=C[C@H]1C[N@@]2CC[C@H]1C[C@@H]2[C@@H](O)c1ccnc2ccc(OC)cc12 [QUINIDINE] | – | – | – | – | – | – | – | – | – | – | 1.88 | 1.85 | 0.05 | 0.38 | 5.31 | 4.92 | 0.304 | 0.22 | 0.302 | 0.23
